Results from patent publication US20230255953A1, “USE OF ROLUPERIDONE IN PREVENTING RELAPSE IN SCHIZOPHRENIA PATIENTS” (Minerva Neurosciences, Inc., priority 2022, published 2023).

Columns and labels:
[1] = tested on: patients with negative symptoms of schizophrenia; experiment: Study #1 (MIN-101C03): safety and tolerability (TEAEs, QTcF); type: in vivo, human; details: for Patients with QTcF prolongation >500 msec and change from Baseline in QTcF >60 msec: DB period
Text: Phase 2b Study #1 (also referred to herein as “MIN-101C03”) was a Phase 2b, double-blind (“DB”), placebo-controlled, randomized, multicenter 12-week study to evaluate the efficacy, safety, and tolerability of Roluperidone in patients ≥18 years to ≤60 years with negative symptoms of schizophrenia, followed by a 24-week open-label (“OL”) extension. The primary objective of the study was to evaluate the efficacy of Roluperidone compared to placebo in improving the negative symptoms of schizophrenia as measured by the change from Baseline in the PANSS negative factor score of the PSM (“PANSS PSM”) over 12 weeks of treatment.
The study consisted of a pretreatment screening period of up to 28 days (including washout), a 12-week, DB, placebo-controlled period, and a 24-week OL period. Eligible patients (who were symptomatically stable for at least 3 months and had scores of at least 20 on the PANSS negative subscale score) were randomized in a 1:1:1 ratio to receive oral Roluperidone (a modified-release, “MR”, formulation) 32 mg QD, Roluperidone 64 mg QD, or placebo for 12 weeks. […] During the 24-week, OL treatment extension period, patients who were initially randomized to Roluperidone 32 mg or 64 mg continued on the same dose, while patients who were initially randomized to placebo crossed over to Roluperidone 32 mg or 64 mg in a 1:1 ratio.
Clinically significant QTcF prolongation >500 msec and change from Baseline in QTcF>60 msec were reported in 2 patients of the 64 mg Roluperidone group, and in no patients in the 32 mg Roluperidone group or in the placebo group during the DB period of the study. The mean changes across all vital sign parameters were small from Baseline to the respective study visits in the DB period of the study.

[2] = tested on: patients with negative symptoms of schizophrenia; experiment: Study #2 (MIN-101C07): Total Verbal Fluency; type: in vivo, human; details: Week 12 DB, ITT
Text: Study #2 (also referred to as “MIN101C07”) was a Phase 3, randomized, DB, placebo-controlled, parallel-group 12-week study to evaluate the efficacy and safety of Roluperidone in patients ≥18 years to ≤55 years with negative symptoms of schizophrenia, followed by a 40-week OL extension. The study consisted of a pretreatment screening period of up to 28 days (including an antipsychotic medication washout period), a 12-week, DB, placebo-controlled period, and a 40-week OL period. Eligible patients (with moderate to severe negative symptoms of schizophrenia and stable positive symptoms but without severe symptoms of suspiciousness, agitation, hostility, uncooperativeness, or poor impulse control) were randomized 1:1:1 to receive Roluperidone 32 mg QD, Roluperidone 64 mg QD (GR01/B formulation, see U.S. Pat. No. 11,464,744), or placebo, orally, for 12 weeks. […] During the 40-week OL treatment extension, patients who were initially randomized to Roluperidone 32 mg or 64 mg continued treatment with the same dose, while patients who were initially randomized to placebo crossed over to Roluperidone 32 mg or 64 mg in a 1:1 ratio.

1H-Isoindol-1-one,2-[ [1-[2-(4-fluorophenyl)-2-oxoethyl]-4-piperidinyl]methyl]-2,3-dihydro-, hydrochloride, hydrate (1:1:2) [Roluperidone]
Patients with QTcF prolongation >500 msec and change from Baseline in QTcF >60 msec ([1]; 32 mg): no patients
Patients with QTcF prolongation >500 msec and change from Baseline in QTcF >60 msec ([1]; 64 mg): 2 patients
Tolerability (TEAEs, SAEs) ([1]; 32 and 64 mg, up to 36 weeks of treatment): generally well tolerated
QTcF prolongation >450 msec and QTcF increases relative to baseline of ≥30 msec ([1]; Roluperidone groups): dose-dependent manner
Change from Baseline LS Mean: Total Verbal Fluency (sum of 3 trials) ([2]; 32 mg QD): 3.9
Effect Size (Cohen's d) vs Placebo: Total Verbal Fluency ([2]; 32 mg QD): 0.21
Change from Baseline LS Mean: Total Verbal Fluency (sum of 3 trials) ([2]; 64 mg QD): 1.7
Effect Size (Cohen's d) vs Placebo: Total Verbal Fluency ([2]; 64 mg QD): −0.10
